Assay results taken from PubChem BioAssay AID2060893 (Molecular Pharmacology Branch, DTP, NCI, 2025).
Where “and” joins values, the source holds several entries; their conditions need not be identical. Identical values can stand only once. Values belong to the compound of their own block, whether it stands above or below them.

Tested on: K86415-001-R-J1-PDC complex spheroids, viability
Experiment: Anticancer human tumor K86415-001-R-J1-PDC patient-derived lung adenocarcinoma cell line growth inhibition [RAS]
Conditions: for viability, T/C: stronger effect = lower value
Text: RAS pathway inhibitors in Combinations in Complex Spheroids
A high-throughput screen of multi-cell type tumor spheroids was designed to identify active combinations of RAS pathway inhibitors and targeted small molecules. Complex spheroids include a stromal component modeled by human endothelial cells (HUVEC) and fibroblasts modeled by human mesenchymal stem cells (MSCs). The concentration ranges selected for each drug and investigational agent were based upon clinically achievable concentrations if the clinical Cmax of the agent was known.
Compounds. The drugs and investigational agents: abemaciclib (NSC768073), cobimetinib (NSC768068), divarasib (GDC6063, NSC841802), docetaxel (NSC628503), GDC-1971 (RLY-1971, NSC841576), gemcitabine (NSC613327), inavolisib (NSC800729), ipatasertib (NSC767898), KB-0742 (NSC834161), MRTX-1133 (NSC836407), osimertinib (NSC779217), RMC-4630 (NSC839698), RMC-6236 (NSC851965), RMC-6291 (NSC852671), Ro-3306 (NSC812927), sapanisertib (NSC764658), SN-38 (NSC673596), staurosporine (NSC755774), SY5609 (NSC837396), and tovorafenib (DAY101, NSC766906), were obtained from the National Cancer Institute (NCI) Developmental Therapeutics Program Chemical Repository. The FDA-approved anticancer drug set is available from the NCI Developmental Therapeutics Program. […] The stock solutions were prepared in dimethyl sulfoxide (DMSO, Sigma-Aldrich, St. Louis, MO, cat. D2650) at 800-fold the tested concentration and stored at -70 degrees C prior to their use. All drugs and investigational agents were tested over a range starting from a high concentration at or near the clinical Cmax and decreasing in half-log increments. If the clinical Cmax for an agent had not been determined, the highest concentration tested was 10 microM.
Cell Culture. All cells were maintained in an incubator at 37 degrees C and 5% CO2 with 95% humidity. The PDC lines were cultured according to standard operating procedures established by the NCI PDMR. All PDCs were thawed and cultured in Matrigel-coated flasks prepared with a working solution of 1X Ham's F-12 nutrient mix, without supplementation (Invitrogen, Waltham, MA, cat. 11765054), 100 U/mL penicillin-streptomycin (Invitrogen, cat. 15140122), and 2.5% Matrigel (Corning Inc., Corning, NY, cat. 354248) for the first three passages. The 362531-283-R-J2-PDC and 782815-120-R-J1-PDC lines were cultured in 6C/Colon 1B media, which includes advanced DMEM/F-12 (Thermo Fisher Scientific, cat. 12634028), 10 mM HEPES (Thermo Fisher Scientific, cat. 15630080), 1X GlutaMAX supplement (Thermo Fisher Scientific, cat. 35050061), 0.1 mg/mL primocin (InvivoGen, San Diego, CA, cat. ant-pm-2), 10% defined fetal bovine serum, heat inactivated (HyClone Laboratories Inc., Logan, UT, cat. SH30070.03HI), 50% L-WRN conditioned media (ATCC, cat. CRL-3276), 1.25 mM N-Acetyl-L-cysteine (Sigma-Aldrich, cat. A9165), 10 mM nicotinamide (Sigma-Aldrich, cat. N0636), 1X B-27 supplement (Thermo Fisher Scientific, cat. 17504044), 1X N-2 supplement (Thermo Fisher Scientific, cat. 17502048), 50 ng/mL human EGF (Thermo Fisher Scientific, cat. PHG0311), and 10 microM Y-27632 dihydrochloride (Tocris Bioscience, cat. 1254). The K12877-001-R-J1-PDC line was cultured in 6I media, which includes all 6C/Colon 1B media plus 10 ng/mL human FGF-10 (PeproTech, cat. 100-26), 1 ng/mL human FGF-2 (PeproTech, cat. 100-18B), 1 µM prostaglandin E2 (Tocris Bioscience, cat. 2296), […] hydrocortisone (Sigma-Aldrich, cat. H4001), and […] bovine insulin (Sigma-Aldrich, cat. I6634). The K86415-001-R-J1-PDC line was cultured in 6D media, which includes all 6C/Colon 1B media components minus the L-WRN conditioned media. The 485176-168-R4-J1-PDC was cultured in PANC media, which includes all 6C/Colon 1B media plus 100 ng/mL human FGF-10 (PeproTech, cat. 100-26), 500 nM SB-431542 (Selleckchem, cat. S1067), and 10 nM gastrin (Tocris Bioscience, cat. 3006). […]

[1] = curve of first compound, second compound 0.0316 µM
[2] = curve of first compound, second compound 0.1 µM
[3] = curve of first compound, second compound 0.316 µM
[4] = curve of first compound, second compound 1 µM
[5] = curve of first compound, second compound 3.16 µM
[6] = curve of first compound, second compound 10 µM
[7] = second compound 0.0316 µM, first compound 0.00316 µM
[8] = second compound 0.0316 µM, first compound 0.01 µM
[9] = second compound 0.0316 µM, first compound 0.0316 µM
[10] = second compound 0.0316 µM, first compound 0.1 µM
[11] = second compound 0.0316 µM, first compound 0.316 µM
[12] = second compound 0.0316 µM, first compound 1 µM
[13] = second compound 0.1 µM, first compound 0.00316 µM
[14] = second compound 0.1 µM, first compound 0.01 µM
[15] = second compound 0.1 µM, first compound 0.0316 µM
[16] = second compound 0.1 µM, first compound 0.1 µM
[17] = second compound 0.1 µM, first compound 0.316 µM
[18] = second compound 0.1 µM, first compound 1 µM
[19] = second compound 0.316 µM, first compound 0.00316 µM
[20] = second compound 0.316 µM, first compound 0.01 µM
[21] = second compound 0.316 µM, first compound 0.0316 µM
[22] = second compound 0.316 µM, first compound 0.1 µM
[23] = second compound 0.316 µM, first compound 0.316 µM
[24] = second compound 0.316 µM, first compound 1 µM
[25] = second compound 1 µM, first compound 0.00316 µM
[26] = second compound 1 µM, first compound 0.01 µM
[27] = second compound 1 µM, first compound 0.0316 µM
[28] = second compound 1 µM, first compound 0.1 µM
[29] = second compound 1 µM, first compound 0.316 µM
[30] = second compound 1 µM, first compound 1 µM
[31] = second compound 3.16 µM, first compound 0.00316 µM
[32] = second compound 3.16 µM, first compound 0.01 µM
[33] = second compound 3.16 µM, first compound 0.0316 µM
[34] = second compound 3.16 µM, first compound 0.1 µM
[35] = second compound 3.16 µM, first compound 0.316 µM
[36] = second compound 3.16 µM, first compound 1 µM
[37] = second compound 10 µM, first compound 0.00316 µM
[38] = second compound 10 µM, first compound 0.01 µM
[39] = second compound 10 µM, first compound 0.0316 µM
[40] = second compound 10 µM, first compound 0.1 µM
[41] = second compound 10 µM, first compound 0.316 µM
[42] = second compound 10 µM, first compound 1 µM
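Note: spheroids exposed to agents for seven days before readout.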

Compound: CC(=O)OC12COC1CC(O)C1(C)C(=O)C(O)C3=C(C)C(OC(=O)C(O)C(NC(=O)OC(C)(C)C)c4ccccc4)CC(O)(C(OC(=O)c4ccccc4)C21)C3(C)C (configuration not stated)
viability, T/C (compound 0.0316 µM): 32.8% [middle of 4 runs]
viability, T/C (compound 0.1 µM): 30.1% [middle of 4 runs]
viability, T/C (compound 0.316 µM): 31% [middle of 4 runs]
viability, T/C (compound 1 µM): 34.2% [middle of 4 runs]
viability, T/C (compound 3.16 µM): 36.2% [middle of 4 runs]
viability, T/C (compound 10 µM): 32.1% [middle of 4 runs]
IC50 (curve of compound): < 31.6 nM

Compound: Cc1nc(N2CCC3(CC2)COC(C)C3N)c(CO)nc1Sc1ccnc(N)c1Cl (configuration not stated)
viability, T/C (compound 0.0316 µM): 76.3% [middle of 4 runs]
viability, T/C (compound 0.1 µM): 53.6% [middle of 4 runs]
viability, T/C (compound 0.316 µM): 36.6% [middle of 4 runs]
viability, T/C (compound 1 µM): 27.2% [middle of 4 runs]
viability, T/C (compound 3.16 µM): 24.6% [middle of 4 runs]
viability, T/C (compound 10 µM): 20.1% [middle of 4 runs]
IC50 (curve of compound): 122 nM [middle of 4 runs]

Compound: C=CC(=O)Nc1cc(Nc2nccc(-c3cn(C)c4ccccc34)n2)c(OC)cc1N(C)CCN(C)C + C#Cc1c(F)ccc2cc(O)cc(-c3ncc4c(N5CC6CCC(C5)N6)nc(OCC56CCCN5CC(F)C6)nc4c3F)c12
IC50 [1]: 493 nM
IC50 [2]: 287 nM
IC50 [3]: 191 nM
IC50 [4]: 42.3 nM
IC50 [5]: < 3.16 nM
IC50 [6]: < 3.16 nM
viability, T/C [7]: 95.1%
viability, T/C [8]: 99.4%
viability, T/C [9]: 88.3%
viability, T/C [10]: 73.1%
viability, T/C [11]: 58.4%
viability, T/C [12]: 38.9%
viability, T/C [13]: 84.5%
viability, T/C [14]: 99.3%
viability, T/C [15]: 88.1%
viability, T/C [16]: 67.7%
viability, T/C [17]: 50.8%
viability, T/C [18]: 31.2%
viability, T/C [19]: 87.8%
viability, T/C [20]: 92.3%
viability, T/C [21]: 72.3%
viability, T/C [22]: 56.1%
viability, T/C [23]: 46.1%
viability, T/C [24]: 21.8%
viability, T/C [25]: 61.1%
viability, T/C [26]: 59.2%
viability, T/C [27]: 52.9%
viability, T/C [28]: 40.8%
viability, T/C [29]: 24.2%
viability, T/C [30]: 14.4%
viability, T/C [31]: 32.3%
viability, T/C [32]: 33.8%
viability, T/C [33]: 27.2%
viability, T/C [34]: 20.4%
viability, T/C [35]: 13.6%
viability, T/C [36]: 9.53%
viability, T/C [37]: 30.3%
viability, T/C [38]: 16.9%
viability, T/C [39]: 13.9%
viability, T/C [40]: 10.1%
viability, T/C [41]: 10.4%
viability, T/C [42]: 7%

Compound: O=C(c1ccc(F)c(F)c1Nc1ccc(I)cc1F)N1CC(O)([C@@H]2CCCCN2)C1 + C#Cc1c(F)ccc2cc(O)cc(-c3ncc4c(N5CC6CCC(C5)N6)nc(OCC56CCCN5CC(F)C6)nc4c3F)c12
IC50 [1]: 64.2 nM
IC50 [2]: 56 nM
IC50 [3]: 38.2 nM
IC50 [4]: 12.5 nM
IC50 [5]: < 3.16 nM
IC50 [6]: < 3.16 nM
viability, T/C [7]: 89%
viability, T/C [8]: 83.5%
viability, T/C [9]: 67.7%
viability, T/C [10]: 38%
viability, T/C [11]: 19.8%
viability, T/C [12]: 8.49%
viability, T/C [13]: 88.1%
viability, T/C [14]: 79.9%
viability, T/C [15]: 61.3%
viability, T/C [16]: 37%
viability, T/C [17]: 22.2%
viability, T/C [18]: 8.46%
viability, T/C [19]: 74.5%
viability, T/C [20]: 74.5%
viability, T/C [21]: 52.2%
viability, T/C [22]: 29.2%
viability, T/C [23]: 17.2%
viability, T/C [24]: 8.24%
viability, T/C [25]: 61.2%
viability, T/C [26]: 54.9%
viability, T/C [27]: 35.9%
viability, T/C [28]: 22%
viability, T/C [29]: 12.4%
viability, T/C [30]: 5.88%
viability, T/C [31]: 28.6%
viability, T/C [32]: 32%
viability, T/C [33]: 20.6%
viability, T/C [34]: 13.8%
viability, T/C [35]: 8.69%
viability, T/C [36]: 3.9%
viability, T/C [37]: 14.4%
viability, T/C [38]: 13.1%
viability, T/C [39]: 9.68%
viability, T/C [40]: 7.57%
viability, T/C [41]: 4.87%
viability, T/C [42]: 3%

Second part, led by results:

IC50 (curve of compound): 1.82 µM [middle of 4 runs]
Compound: CCC(CC)c1cc(NC2CCC(N)C2)n2nccc2n1 (configuration not stated)
viability, T/C (compound 0.0316 µM): 106% and 116% (2×) and 92.8%
viability, T/C (compound 0.1 µM): 115% [middle of 4 runs]
viability, T/C (compound 0.316 µM): 122% [middle of 4 runs]
viability, T/C (compound 1 µM): 100% [middle of 4 runs]
viability, T/C (compound 3.16 µM): 3.47% [middle of 4 runs]
viability, T/C (compound 10 µM): 3.37% [middle of 4 runs]

IC50 (curve of compound): < 31.6 nM
Compound: NC1c2ccccc2OC12CCN(c1cnc3c(N4CCCc5ncccc54)n[nH]c3n1)CC2 (configuration not stated)
viability, T/C (compound 0.0316 µM): 46.3% [middle of 4 runs]
viability, T/C (compound 0.1 µM): 29.9% [middle of 4 runs]
viability, T/C (compound 0.316 µM): 22.7% [middle of 4 runs]
viability, T/C (compound 1 µM): 19.7% and 20.6% and 16.5%
viability, T/C (compound 3.16 µM): 21% [middle of 4 runs]
viability, T/C (compound 10 µM): 23.1% [middle of 4 runs]
